What is called melting point is the temperature of the solid-liquid transition. On to `CCNC(=O)N1CCCc2cc3c(c(C)c21)CCNCC3.O=C(O)C(=O)O`, for which the melting point was 170 to 171 °C.
For the compound `O=C(O)CCC(=O)O.c1ccc(OCCN2CCOc3cc4c(cc32)CCNCC4)cc1`, the melting point lay in the range of 132 to 134 °C.
The same measure for `O=C(O)/C=C/C(=O)O.c1nc(CN2CCOc3cc4c(cc32)CCNCC4)cs1`: 134 to 138 °C; for `COCCN1CCOc2cc3c(c(-c4ccccc4)c21)CCNCC3.O=C(O)/C=C/C(=O)O`: 199 to 201 °C; for `COCCN1C(=O)CCc2cc3c(c(Br)c21)CCNCC3.O=C(O)/C=C/C(=O)O`: 99 to 104 °C.
Then `CC(C)COC(=O)N1CCCc2cc3c(cc21)CCNCC3.Cl`, with 202 to 207 °C; and `Cl.O=C1CCc2cc3c(cc2N1Cc1ccccc1)CCNCC3`, with 177 to 180 °C.
Turning to `CC(C)CN1C(=O)CCc2cc3c(cc21)CCNCC3.O=C(O)CCC(=O)O`, the melting point lay within 142 to 144 °C.
In turn, `COCCCN1C(=O)CCc2cc3c(c(Br)c21)CCNCC3.O=C(O)/C=C/C(=O)O` registered a melting point of 153 to 155 °C.
The compound `CCCN1C(=O)CCc2cc3c(c(-c4ccccc4)c21)CCNCC3.O=C(O)CCC(=O)O` gave a melting point of 196 to 200 °C.
The same measure for `COc1cccc(CN2C(=O)COc3cc4c(cc32)CCNCC4)c1.O=C(O)CCC(=O)O`: 188 to 189 °C.
The same measure for `O=C(O)CCC(=O)O.O=C1COc2cc3c(cc2N1Cc1cccc(Cl)c1)CCNCC3`: 192 to 194 °C; for `CCCN1C(=O)CCc2cc3c(c(C4CC4)c21)CCNCC3.O=C(O)CCC(=O)O`: 170 to 171 °C.
`COc1ccc(CN2C(=O)COc3cc4c(cc32)CCNCC4)cc1.O=C(O)CCC(=O)O` registered a melting point of 173 to 176 °C.
Regarding `O=C(O)CCC(=O)O.O=C(OCCc1ccccc1Cl)N1CCCc2cc3c(cc21)CCNCC3`, the melting point is 187 to 188 °C.
Then `CCN1CCOc2cc3c(c(C4CC4)c21)CCNCC3.O=C(O)/C=C/C(=O)O`, with 174 to 177 °C.
Then `CCCN1CCOc2cc3c(c(C4CC4)c21)CCNCC3.O=C(O)/C=C/C(=O)O`, with 138 to 141 °C; and `O=C(O)/C=C/C(=O)O.OCCN1CCOc2cc3c(c(C4CC4)c21)CCNCC3`, with 146 to 150 °C.
The same measure for `COCCN1CC(C)Oc2cc3c(c(C4CC4)c21)CCNCC3.O=C(O)/C=C/C(=O)O` (centres unmarked): 102 to 103 °C; for `CCOC(=O)N1CCCc2cc3c(c(Br)c21)CCNCC3.O=C(O)C(=O)O`: 187 to 189 °C.
`O=C(O)C(=O)O.O=C(OCCc1ccccc1)N1CCCc2cc3c(c(Br)c21)CCNCC3` gave a melting point of 176 to 177 °C.
The compound `CN1CCC(C)(C)c2cc3c(cc21)CCNCC3.O=C(O)/C=C/C(=O)O` yielded a melting point of 197 to 200 °C.
Compound `FC(F)(F)c1cccc(CN2CCOc3cc4c(cc32)CCNCC4)c1.O=C(O)/C=C/C(=O)O` gave a melting point of 141 to 146 °C.
Then `COCCN1CCC(C)(C)c2cc3c(cc21)CCNCC3.O=C(O)/C=C/C(=O)O`, with 172 to 175 °C; and `O=C(O)CCC(=O)O.O=C(OCCc1ccccc1)N1CCOc2cc3c(cc21)CCNCC3`, with 185 to 187 °C.
Take `COCCN1CCOc2cc3c(c(-c4ccccc4F)c21)CCNCC3.O=C(O)/C=C/C(=O)O`: the melting point lay within 179 to 182 °C.
With `O=C(O)CCC(=O)O.O=C(OCCc1ccccc1Cl)N1CCOc2cc3c(cc21)CCNCC3`, the melting point was in the range of 169 to 170 °C.
Then `O=C(O)CCC(=O)O.O=C(OCCc1cccc(Cl)c1)N1CCOc2cc3c(cc21)CCNCC3`, with 160 to 162 °C; and `COc1ccccc1CCOC(=O)N1CCOc2cc3c(cc21)CCNCC3.O=C(O)CCC(=O)O`, with 158 to 160 °C; and `COc1cccc(CCOC(=O)N2CCOc3cc4c(cc32)CCNCC4)c1.O=C(O)CCC(=O)O`, with 134 to 136 °C.
`COCCN1CCOc2cc3c(c(C=C(C)C)c21)CCNCC3.O=C(O)/C=C/C(=O)O` came in with a melting point of 173 to 176 °C.
With `O=C(O)CCC(=O)O.O=C(OCCc1cccc(F)c1)N1CCOc2cc3c(cc21)CCNCC3`, the melting point lay within 162 to 164 °C.
The same measure for `O=C(O)CCC(=O)O.O=C(OCCc1ccc(F)cc1)N1CCOc2cc3c(cc21)CCNCC3`: 179 to 181 °C; for `COCCN1C(=O)C(C)(C)Oc2cc3c(cc21)CCNCC3.O=C(O)/C=C/C(=O)O`: 175 to 176 °C; for `Cl.FC(F)(F)CN1CCOc2cc3c(c(Br)c21)CCNCC3`: 214 to 215 °C.
Then `Cl.FC(F)(F)CN1CCOc2c1cc1c(c2Br)CCNCC1`, with 216 to 221 °C; and `COCCN1c2cc3c(cc2CCC1(C)C)CCNCC3.O=C(O)/C=C/C(=O)O`, with 156 to 158 °C.
The same measure for `CC(COC(=O)N1CCOc2cc3c(cc21)CCNCC3)c1ccccc1.O=C(O)CCC(=O)O` (centres unmarked): 177 to 179 °C.
In turn, `CC(Cc1ccccc1)OC(=O)N1CCOc2cc3c(cc21)CCNCC3.O=C(O)CCC(=O)O` (centres unmarked) showed a melting point of 85 to 87 °C.
In the case of `O=C(O)CCC(=O)O.O=C(OCCc1ccccc1)N1CCOc2c1cc1c(c2Br)CCNCC1`, the melting point was 142 to 143 °C.
Then `COCCN1CCOc2c1cc1c(c2Cl)CCNCC1.O=C(O)CCC(=O)O`, with 139 to 141 °C; and `O=C(O)CCC(=O)O.O=C(OCCc1ccccc1)N1CCOc2c1cc1c(c2C2CC2)CCNCC1`, with 142 to 144 °C; and `COCC(F)(F)CN1CCOc2cc3c(cc21)CCNCC3.Cl`, with 172 to 173 °C.
`COCC(F)(F)CN1CCOc2cc3c(c(C4CC4)c21)CCNCC3.O=C(O)/C=C/C(=O)O`: the melting point was 163 to 165 °C.
The same measure for `COCCN1c2cc3c(cc2OC[C@H]1C)CCNCC3.O=C(O)/C=C/C(=O)O`: 133 to 136 °C; for `COCCN1c2cc3c(cc2OC[C@@H]1C)CCNCC3.O=C(O)/C=C/C(=O)O`: 131 to 134 °C; for `O=C(O)CCC(=O)O.O=C(OCCc1ccccc1)N1CCOc2c1cc1c(c2-c2ccccc2)CCNCC1`: 169 to 171 °C.
The compound `CCCc1c2c(cc3c1OCCN3C(=O)OCCc1ccccc1)CCNCC2.O=C(O)/C=C/C(=O)O` gave a melting point of 134 to 136 °C.
The compound `O=C(O)/C=C/C(=O)O.O=C(OCCc1ccccc1)N1CCOc2c1cc1c(c2-c2cccs2)CCNCC1` gave a melting point of 215 to 216 °C.
Then `CO[C@@H](C)CN1CCOc2cc3c(c(C4CC4)c21)CCNCC3.O=C(O)/C=C/C(=O)O`, with 135 to 138 °C.
In turn, `C[C@H](F)CN1CCOc2cc3c(c(C4CC4)c21)CCNCC3.O=C(O)/C=C/C(=O)O` displayed a melting point of 171 to 173 °C.
`CN1CCOc2cc3c(c(-c4cccs4)c21)CCNCC3.O=C(O)/C=C/C(=O)O` came in with a melting point of 248 to 252 °C.
Then `COC[C@H](CN1CCOc2cc3c(c(C4CC4)c21)CCNCC3)OC.O=C(O)/C=C/C(=O)O`, with 150 to 154 °C; and `CCCC1CN(C)c2cc3c(cc2O1)CCNCC3.O=C(O)/C=C/C(=O)O` (centres unmarked), with 152 to 153 °C.
The same measure for `COC[C@@H](CN1CCOc2cc3c(c(C4CC4)c21)CCNCC3)OC.O=C(O)/C=C/C(=O)O`: 156 to 158 °C; for `COCCCN1CCOc2cc3c(c(C)c21)CCNCC3.O=C(O)/C=C/C(=O)O`: 160 to 163 °C; for `CCOCCN1CCOc2cc3c(c(C)c21)CCNCC3.O=C(O)/C=C/C(=O)O`: 152 to 155 °C.
The same measure for `Cc1c2c(cc3c1N(CCCF)CCO3)CCNCC2.O=C(O)/C=C/C(=O)O`: 187 to 190 °C; for `O=C(O)/C=C/C(=O)O.c1c2c(c(C3CC3)c3c1OCCN3CC1CCOC1)CCNCC2` (centres unmarked): 117 to 118 °C.
For `Cc1c2c(cc3c1N(C[C@H](C)F)CCO3)CCNCC2.O=C(O)/C=C/C(=O)O`, the melting point fell in the range of 165 to 168 °C.
The same measure for `O=C(O)CCC(=O)O.c1ccc(CN2CCOc3cc4c(c(C5CC5)c32)CCNCC4)cc1`: 107 to 110 °C.
Turning to `Fc1cccc(CN2CCOc3cc4c(c(C5CC5)c32)CCNCC4)c1.O=C(O)CCC(=O)O`, the melting point lay in the range of 102 to 105 °C.
Compound `CCOCCN1CCOc2cc3c(c(CC)c21)CCNCC3.O=C(O)/C=C/C(=O)O` had a melting point of 179 to 181 °C.
In turn, `FC(F)CN1CCOc2cc3c(c(C4CC4)c21)CCNCC3.O=C(O)/C=C/C(=O)O` displayed a melting point of 198 to 201 °C.
Regarding `FC1(F)Oc2ccc(CN3CCOc4cc5c(c(C6CC6)c43)CCNCC5)cc2O1.O=C(O)/C=C/C(=O)O`, the melting point was 161 to 164 °C.
The same measure for `O=C(O)/C=C/C(=O)O.c1cc(CN2CCOc3cc4c(c(C5CC5)c32)CCNCC4)c2c(c1)OCCO2`: 184 to 187 °C.
Then `CC1(C)CC(=O)Nc2cc3c(cc21)CCNCC3.Cl`, with 270 to 272 °C; and `Fc1cccc(CN2CCOc3cc4c(c(C5CC5)c32)CCNCC4)c1F.O=C(O)/C=C/C(=O)O`, with 157 to 159 °C.
`Fc1c(Cl)cccc1CN1CCOc2cc3c(c(C4CC4)c21)CCNCC3.O=C(O)/C=C/C(=O)O`: the melting point lay in the range of 181 to 184 °C.
`COc1cc(OCCN2CCOc3cc4c(c(C5CC5)c32)CCNCC4)c(F)cc1C#N.O=C(O)/C=C/C(=O)O` had a melting point of 125 to 128 °C.
`COc1ccc(F)cc1CN1CCOc2cc3c(c(C4CC4)c21)CCNCC3.O=C(O)/C=C/C(=O)O` yielded a melting point of 189 to 192 °C.
`COc1ccc(Cl)cc1CN1CCOc2cc3c(c(C4CC4)c21)CCNCC3.O=C(O)/C=C/C(=O)O`: the melting point was 193 to 196 °C.
`COCC(CN1CCOc2cc3c(c(C4CC4)c21)CCNCC3)Oc1ccccc1F.O=C(O)/C=C/C(=O)O` (centres unmarked) returned a melting point of 132 to 133 °C.
In turn, `COCC(CN1CCOc2cc3c(c(C4CC4)c21)CCNCC3)Oc1ccc(F)cc1.O=C(O)/C=C/C(=O)O` (centres unmarked) came in with a melting point of 138 to 140 °C.
`CCOCc1cc(F)c(OCCN2CCOc3cc4c(c(C5CC5)c32)CCNCC4)c(F)c1.O=C(O)/C=C/C(=O)O` displayed a melting point of 138 to 139 °C.
Then `Clc1cccc(-c2c3c(cc4c2NCCC4)CCNCC3)c1.O=C(O)/C=C/C(=O)O`, with 159 to 162 °C; and `COCCN1C(=O)CCc2cc3c(cc21)CCNCC3.O=C(O)/C=C/C(=O)O`, with 164 to 166 °C.

(Values after patent publication US9598434B2, “Benzazepine compound” (Astellas Pharma Inc., priority 2010, dated 2017).)
